{
  "source": "patent US4067997A",
  "about": "“Synergistic microbecidal composition and method” (priority 1976, dated 1978)",
  "key": {"[1]": {"test_system": "Candida albicans", "assay": "MIC on mass basis (Example V procedure)", "assay_type": "cell-based", "description": "(§1) The essential procedure of Example I was followed with a series of phenolic compounds, with the exception that the test method was conducted on a mass (μg/ml) basis rather than a molecular (mol/ml) basis of the foregoing tests, since the long established phenol-coeffecient test is on a mass rather than molecular basis. Additionally, a different but closely related group of organisms were used in this test, in order to give a complete representative span on gram-negative, gram-positive and fungus organisms. Additionally, the phenolic derivatives chosen for test purposes include a number of derivatives which are presently accepted by the FDA as food-grade phenolic microbicides.\n(§2) The same procedure of Example V was repeated but with combinations of mono-laurin (GML).\n(§3) The procedure of Example V was repeated with combinations of glycerol mono-laurin (GML) and ethylenediamine tetraacetic acid (EDTA) as the calcium salt and in combination with BHA."}, "[2]": {"test_system": "Staphylococcus aureus", "assay": "MIC on mass basis (Example V procedure)", "assay_type": "cell-based", "description": "as §1, §2, §3"}, "[3]": {"test_system": "Streptococcus agalactiae", "assay": "MIC on mass basis (Example V procedure)", "assay_type": "cell-based", "description": "as §1, §2, §3"}, "[4]": {"test_system": "Streptococcus mutans", "assay": "MIC on mass basis (Example V procedure)", "assay_type": "cell-based, Streptococcus mutans (ATCC 10441)", "description": "as §1, §2, §3"}, "[5]": {"assay": "60 minute reading, colony forming units (Examples VIII, X, XII)", "assay_type": "cell-based", "details": "Table 18; base line 2.2 × 10^6CFU", "quoted_text": "The results of this experiment are recorded in the 60 minute reading."}, "[6]": {"test_system": "Streptococcus faecalis (Group D)", "assay": "MIC on mass basis (Example V procedure)", "assay_type": "cell-based", "description": "as §1"}, "[7]": {"test_system": "Streptococcus pyogenes", "assay": "MIC on mass basis (Example V procedure)", "assay_type": "cell-based", "description": "as §1"}, "[8]": {"test_system": "Corynebacterium sp.", "assay": "MIC on mass basis (Example V procedure)", "assay_type": "cell-based", "description": "as §1"}, "[9]": {"test_system": "nine gram-positive organisms and the yeast/fungus Candida", "assay": "MIC, broth dilution, over all organisms (Examples I/II)", "assay_type": "cell-based", "details": "all except streptococcus Group D; from essentially as active up to", "description": "In order to establish comparative bactericidal and fungicidal results with homologous fatty acids, a series of experiments was performed with thirty straight-chain fatty acids and derivatives thereof. Eight different gram-negative and twelve different gram-positive organisms, representing a very broad spectrum of organisms, were used in these experiments including the fungus Candida (a yeast). Additionally, fatty acids were chosen to show the effects of saturation versus unsaturation, in the fatty acid claim. Standard solutions of the fatty acids and their derivatives were prepared by first dissolving the weighed compounds in 1 to 2 ml of 95% ethanol and immediately pouring this solution into 200 ml of Tripticase Soy Broth. These lipid compounds which are insoluble in water and broth precipitated into very small crystals or droplets. The tubes containing the suspension were warmed to approximately 70° C and were then placed in an ultrasonic tank for further solubilization of the lipid derivatives.\nStandard solutions (or suspensions) at 1,000 μg/ml were twofold serially diluted with additional broth to a concentration of 125 μg/ml. A 4-ml amount of each dilution was then quickly, and with constant agitation, dispensed into appropriately labeled screw-capped glass tubes (16 by 125 mm). The tubes were sterilized with steam at 15 psi for 15 minutes. After sterilization, all tubes were cooled and incubated overnight at 35° C to insure sterility.\nAll compounds were compared on a molar (micromoles/milliliter) rather than on a mass basis. In the following lists of organisms used, those followed by a parenthetical number are registered with the American Type Culture Collection (ATCC); the remainder were isolates from Providence Hospital or Northland Laboratory.\nStaphylococcus aureus, S. epidermidis, beta-hemolytic streptococci (Group A and non-group A), group D streptococcus, Bacillus subtilis (6051), Sarcina lutea (9431), Micrococcus sp., Candida albicans, Nocardia asteroids (3308), Corynebacterium sp. (10700), and pneumococcus (63001).\nOne drop (0.04 ± 0.01 ml) of an 18-hr broth culture containing 10^7 and 10^9 organisms/ml was added to each dilution of the test compound, as well as to a tube of plain broth which served as the positive control. After inoculation, the contents of each tube were well mixed, and the tubes were incubated at 35° C in a 5% carbon dioxide + […] atmosphere.\nThe MIC is defined as the lowest concentration of compound at which no […] evidence of growth was observed when turbidity of the inoculated broth dilutions was compared with control tubes. […] Only a one-tube difference between the bactericidal and bacteriostatic concentrations was normally observed.\nTable 5 presents a comparison of the C10 and C12 free acids and their glyceryl derivatives, and Table 6 gives the corresponding ranges of activity.\nStandard solutions (1000 μg/ml) of three fatty acids and polyglycerol esters thereof were prepared as described in Example I. Also sucrose esters were prepared by transferring the weighed compounds (0.2 gm. dissolved in 1 ml absolute methanol) into 200 ml of sterile Trypticase Soy Broth (TSB). These standard solutions (1000 μg/ml) were twofold serially diluted with additional sterile broth to a concentration of 125 μg/ml. A 3.8 aliquot of each dilution was asceptically delivered into sterile screw-capped culture tubes. All tubes were incubated overnight at 36° C to insure sterility. The microorganisms used in this example were the same as those used in Example I.\nThe inoculum, 0.05 ml of an 13-24 hour TSB culture (approximately 10^9 organisms/ml) was asceptically delivered into all dilutions of the compounds, mixed well, and incubated at 36° C. […]"}},
  "data": [
    {"compound": "CCCCCCCCCCCC(=O)OCC(O)CO", "note": "(centres unmarked) [GML, glycerol mono-laurin]", "values": [
      {"measurement": "MIC", "setting": "[1]; Table 13, Candida albicans", "value": "> 1,000 μg/ml"},
      {"measurement": "MIC", "setting": "[1]; Table 14, Candida albicans", "value": "> 1,000 μg/ml"},
      {"measurement": "MIC", "setting": "[1]; Table 16, Candida albicans, no unit in table", "value": "> 1,000"},
      {"measurement": "MIC of GML", "setting": "[1]; Table 17, EDTA 0", "value": "> 10,000 μg/ml"},
      {"measurement": "MIC of GML", "setting": "[1]; Table 17, EDTA 125", "value": 500, "unit": "µg/mL"},
      {"measurement": "MIC of GML", "setting": "[1]; Table 17, EDTA 250", "value": 500, "unit": "µg/mL"},
      {"measurement": "MIC of GML", "setting": "[1]; Table 17, EDTA 500", "value": 100, "unit": "µg/mL"},
      {"measurement": "MIC of GML", "setting": "[1]; Table 17, EDTA 1,000", "value": 100, "unit": "µg/mL"},
      {"measurement": "MIC of GML", "setting": "[1]; Table 17, EDTA 5,000", "value": 100, "unit": "µg/mL"},
      {"measurement": "MIC of GML", "setting": "[1]; Table 17, EDTA 10,000", "value": 100, "unit": "µg/mL"},
      {"measurement": "MIC", "setting": "[2]; Table 13, Staphylococcus aureus", "value": 31.25, "unit": "µg/mL"},
      {"measurement": "MIC", "setting": "[2]; Table 14, Staphylococcus aureus", "value": 31.25, "unit": "µg/mL"},
      {"measurement": "MIC", "setting": "[2]; Table 16, Staphylococcus aureus, no unit in table", "value": "1,000"},
      {"measurement": "MIC of GML", "setting": "[2]; Table 17, EDTA 0", "value": "1,000 μg/ml"},
      {"measurement": "MIC of GML", "setting": "[2]; Table 17, EDTA 125", "value": "1,000 μg/ml"},
      {"measurement": "MIC of GML", "setting": "[2]; Table 17, EDTA 250", "value": "1,000 μg/ml"},
      {"measurement": "MIC of GML", "setting": "[2]; Table 17, EDTA 500", "value": 500, "unit": "µg/mL"},
      {"measurement": "MIC of GML", "setting": "[2]; Table 17, EDTA 1,000", "value": 100, "unit": "µg/mL"},
      {"measurement": "MIC of GML", "setting": "[2]; Table 17, EDTA 5,000", "value": "< 10", "unit": "µg/mL"},
      {"measurement": "MIC of GML", "setting": "[2]; Table 17, EDTA 10,000", "value": "< 10", "unit": "µg/mL"},
      {"measurement": "MIC", "setting": "[3]; Table 13, Streptococcus agalactiae", "value": 15.60, "unit": "µg/mL"},
      {"measurement": "MIC", "setting": "[3]; Table 14, Streptococcus agalactiae", "value": 31.25, "unit": "µg/mL"},
      {"measurement": "MIC", "setting": "[4]; Table 13, Streptococcus mutans", "value": 31.25, "unit": "µg/mL"},
      {"measurement": "MIC", "setting": "[4]; Table 14, Streptococcus mutans", "value": 31.25, "unit": "µg/mL"},
      {"measurement": "60 Minute Reading", "setting": "[5]", "value": "9.7 × 10^5 CFU"},
      {"measurement": "MIC", "setting": "[6]; Table 16, Streptococcus faecalis (Group D), no unit in table", "value": "> 1,000"},
      {"measurement": "MIC of GML", "setting": "[6]; Table 17, EDTA 0", "value": "> 10,000 μg/ml"},
      {"measurement": "MIC of GML", "setting": "[6]; Table 17, EDTA 125", "value": "> 10,000 μg/ml"},
      {"measurement": "MIC of GML", "setting": "[6]; Table 17, EDTA 250", "value": "> 10,000 μg/ml"},
      {"measurement": "MIC of GML", "setting": "[6]; Table 17, EDTA 500", "value": "> 10,000 μg/ml"},
      {"measurement": "MIC of GML", "setting": "[6]; Table 17, EDTA 1,000", "value": "1,000 μg/ml"},
      {"measurement": "MIC of GML", "setting": "[6]; Table 17, EDTA 5,000", "value": "< 10", "unit": "µg/mL"},
      {"measurement": "MIC of GML", "setting": "[6]; Table 17, EDTA 10,000", "value": "< 10", "unit": "µg/mL"},
      {"measurement": "MIC", "setting": "[7]; Table 16, Streptococcus pyogenes, no unit in table", "value": 10},
      {"measurement": "MIC of GML", "setting": "[7]; Table 17, EDTA 0", "value": "< 10", "unit": "µg/mL"},
      {"measurement": "MIC of GML", "setting": "[7]; Table 17, EDTA 125", "value": "< 10", "unit": "µg/mL"},
      {"measurement": "MIC of GML", "setting": "[7]; Table 17, EDTA 250", "value": "< 10", "unit": "µg/mL"},
      {"measurement": "MIC of GML", "setting": "[7]; Table 17, EDTA 500", "value": "< 10", "unit": "µg/mL"},
      {"measurement": "MIC of GML", "setting": "[7]; Table 17, EDTA 1,000", "value": "< 10", "unit": "µg/mL"},
      {"measurement": "MIC of GML", "setting": "[7]; Table 17, EDTA 5,000", "value": "< 10", "unit": "µg/mL"},
      {"measurement": "MIC of GML", "setting": "[7]; Table 17, EDTA 10,000", "value": "< 10", "unit": "µg/mL"},
      {"measurement": "MIC", "setting": "[8]; Table 16, Corynebacterium sp., no unit in table", "value": 10},
      {"measurement": "MIC of GML", "setting": "[8]; Table 17, EDTA 0", "value": "< 10", "unit": "µg/mL"},
      {"measurement": "MIC of GML", "setting": "[8]; Table 17, EDTA 125", "value": "< 10", "unit": "µg/mL"},
      {"measurement": "MIC of GML", "setting": "[8]; Table 17, EDTA 250", "value": "< 10", "unit": "µg/mL"},
      {"measurement": "MIC of GML", "setting": "[8]; Table 17, EDTA 500", "value": "< 10", "unit": "µg/mL"},
      {"measurement": "MIC of GML", "setting": "[8]; Table 17, EDTA 1,000", "value": "< 10", "unit": "µg/mL"},
      {"measurement": "MIC of GML", "setting": "[8]; Table 17, EDTA 5,000", "value": "< 10", "unit": "µg/mL"},
      {"measurement": "MIC of GML", "setting": "[8]; Table 17, EDTA 10,000", "value": "< 10", "unit": "µg/mL"},
      {"measurement": "Activity of mono-laurin relative to mono-capric", "setting": "[9]", "value": "≤ 5.5", "unit": "times"}
    ]}
  ]
}
